# From patent publication US3970648A, “2-[2-(5-Nitro-2-furyl)vinyl]-4-(anilino)quinazolines” (Diamond Shamrock Corporation, priority 1974, dated 1976)
# What was measured:
# Type in all cases: cell-based
# [1] = test system: Staphylococcus aureus; assay: Bactericide test, Staphylococcus aureus (agar streak plate); details: Staphylococcus aureus
# Method in brief: (§1)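 Compounds in Triton X-155/acetone emulsifier (basic formulation 320 ppm, diluted serially) were mixed 2:8 into molten nutrient-tryptic soy agar, then organisms streaked on the set plates. After 48 hr at 28°C, growth was scored visually against untreated agar as 0%, 50% (sparse, separated colonies) or 100% control (no visible colonies).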
# [2] = test system: Salmonella cholerasuis; assay: Bactericide test, Salmonella cholerasuis (agar streak plate); details: Salmonella
# Method in brief: as §1
# [3] = test system: Streptococcus agalactiae; assay: Bactericide test, Streptococcus agalactiae (agar streak plate)
# Method in brief: (§2)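 Compounds were formulated with Triton X-155/acetone emulsifier (basic formulation 320 ppm, serially diluted) and mixed 2:8 into molten nutrient-tryptic soy agar. Organisms were streaked onto the plates and incubated 48 hr at 28°C. Growth inhibition was scored visually against untreated agar as 0, 50 or 100% control.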
# [4] = test system: Vibrio coli; assay: Bactericide test, Vibrio coli (agar streak plate)
# Method in brief: as §2
# [5] = test system: Escherichia coli; assay: Bactericide test, Escherichia coli (agar streak plate)
# Excerpt: Test formulations were examined for bactericidal and/or bacteriostatic activity against the test organisms shown in Tables A and B. These organisms were chosen as being representative of commercially important pathogens affecting animal agriculture. The antibiotic chlortetracycline was chosen as a positive control, since it has a broad spectrum of activity against a large number of organisms, and its activity can be used for comparative purposes.
# Basic test formulations of the product of Examples I, II, III, and of chlortetracycline were prepared by dissolving 16 mg (0.016 g) in 2.0 ml of stock emulsifier solution (0.25% Triton X-155 in acetone by volume) and making each solution up to 50 ml with deionized water. The concentration of the test compound in the basic formulation was 320 ppm. Lower concentrations of the test compound were obtained by diluting the basic formulation with a 4% solution of the stock emulsifier in deionized water so that each dilution in the series differed only in test compound content.
# Nutrient-tryptic soy agar (NTA) consisting of 2.0% Difco Bactoagar 0.8% nutrient broth (Difco), and 0.5% tryptic soy broth (Difco) was prepared and sterilized by autoclaving. A 2 ml aliquot of each test formulation was added to 8 ml of molten NTA. This mixture was then plated in a sterile polystyrene petri dish (100 × 15 mm). After the agar was set, suspensions of each of the test organisms were simultaneously streaked onto the surface of the agar. The inoculated plates were incubated for 48 hr at 28°C. The inhibition of growth of each organism was rated by visual comparison with the organism developing on non-treated agar. Growth inhibition reported as per cent control was rated in three categories as follows: 0% control, growth equivalent to that on non-treated agar; 50% control, sparse development and separated colonies; 100% control, no visible growth or development of colonies.
# Test formulations of the product of Example IV were examined for bactericidal and/or bacteriostatic activity against the test organisms shown in Table B using the Bactericide Test described in Example V. The inhibition of organism growth with each diluted test formulation was rated visually by comparison with the organism developing on a non-treated control agar plate. Growth inhibition reported as per cent control was rated in three categories as follows: 0% control, growth equivalent to that on non-treated agar; 50% control is sparse development and separated colonies; and 100% control, development of individual colonies was not apparent.
# [6] = test system: Salmonella gallinarum; assay: Bactericide test, Salmonella gallinarum (agar streak plate); details: Salmonella enterica, GALLINARUM
# Method in brief: as §1
# [7] = test system: Streptococcus faecalis; assay: Bactericide test, Streptococcus faecalis (agar streak plate)
# Method in brief: as §1
# [8] = test system: Bordetella bronchiseptica; assay: Bactericide test, Bordetella bronchiseptica (agar streak plate)
# Method in brief: as §2
# [9] = test system: Erysipelothrix rhusiopathiae; assay: Bactericide test, Erysipelothrix rhusiopathiae (agar streak plate)
# Method in brief: as §2
# [10] = test system: Salmonella typhimurium; assay: Bactericide test, Salmonella typhimurium (agar streak plate); details: Salmonella enterica, TYPHIMURIUM
# Method in brief: as §2
# [11] = test system: Streptococcus group E; assay: Bactericide test, Streptococcus group E (agar streak plate)
# Method in brief: as §2
# [12] = 100% inhibition at lower concentrations
compound,measurement,setting,value
"O=[N+]([O-])c1ccc(C=Cc2nc(Nc3cccc(O)c3)c3ccccc3n2)o1 [Example II, 2-[2-(5-nitro-2-furyl)vinyl]-4-(m-hydroxyanilino)quinazoline]",inhibition at 0.125 ppm,[1]; 0.125 ppm,0%
same,inhibition at 0.25 ppm,[1]; 0.25 ppm,0%
same,inhibition at 0.5 ppm,[1]; 0.5 ppm,0%
same,inhibition at 1 ppm,"[1]; 1 ppm, read-out: % Inhibition",0%
same,inhibition at 2 ppm,[1]; 2 ppm,0%
same,inhibition at 4 ppm,"[1]; 4 ppm, read-out: % Inhibition",0%
same,inhibition at 8 ppm,[1]; 8 ppm,0%
same,inhibition at 16 ppm,"[1]; 16 ppm, read-out: % Inhibition",0%
same,inhibition at 32 ppm,[1]; 32 ppm,0%
same,inhibition at 64 ppm,"[1]; 64 ppm, read-out: % Inhibition",0%
same,inhibition at 0.125 ppm,[2]; 0.125 ppm,0%
same,inhibition at 0.25 ppm,[2]; 0.25 ppm,0%
same,inhibition at 0.5 ppm,[2]; 0.5 ppm,0%
same,inhibition at 1 ppm,"[2]; 1 ppm, read-out: % Inhibition",0%
same,inhibition at 2 ppm,[2]; 2 ppm,0%
same,inhibition at 4 ppm,"[2]; 4 ppm, read-out: % Inhibition",0%
same,inhibition at 8 ppm,[2]; 8 ppm,0%
same,inhibition at 16 ppm,"[2]; 16 ppm, read-out: % Inhibition",0%
same,inhibition at 32 ppm,[2]; 32 ppm,0%
same,inhibition at 64 ppm,"[2]; 64 ppm, read-out: % Inhibition",0%
same,effectiveness compared with chlortetracycline (in words),[3]; [12],considerably more effective
same,inhibition at 0.125 ppm,"[3]; Streptococcus agalactiae, 0.125 ppm",100%
same,inhibition at 0.25 ppm,"[3]; Streptococcus agalactiae, 0.25 ppm",100%
same,inhibition at 0.5 ppm,"[3]; Streptococcus agalactiae, 0.5 ppm",100%
same,inhibition at 1 ppm,"[3]; Streptococcus agalactiae, 1 ppm, read-out: % Inhibition",100%
same,inhibition at 2 ppm,"[3]; Streptococcus agalactiae, 2 ppm",100%
same,inhibition at 4 ppm,"[3]; Streptococcus agalactiae, 4 ppm, read-out: % Inhibition",100%
same,inhibition at 8 ppm,"[3]; Streptococcus agalactiae, 8 ppm",100%
same,inhibition at 16 ppm,"[3]; Streptococcus agalactiae, 16 ppm, read-out: % Inhibition",100%
same,inhibition at 32 ppm,"[3]; Streptococcus agalactiae, 32 ppm",100%
same,inhibition at 64 ppm,"[3]; Streptococcus agalactiae, 64 ppm, read-out: % Inhibition",100%
same,effectiveness compared with chlortetracycline (in words),[4]; [12],considerably more effective
same,inhibition at 0.125 ppm,"[4]; Campylobacter coli, 0.125 ppm",100%
same,inhibition at 0.25 ppm,"[4]; Campylobacter coli, 0.25 ppm",100%
same,inhibition at 0.5 ppm,"[4]; Campylobacter coli, 0.5 ppm",100%
same,inhibition at 1 ppm,"[4]; Campylobacter coli, 1 ppm",100%
same,inhibition at 2 ppm,"[4]; Campylobacter coli, 2 ppm",100%
same,inhibition at 4 ppm,"[4]; Campylobacter coli, 4 ppm",100%
same,inhibition at 8 ppm,"[4]; Campylobacter coli, 8 ppm",100%
same,inhibition at 16 ppm,"[4]; Campylobacter coli, 16 ppm",100%
same,inhibition at 32 ppm,"[4]; Campylobacter coli, 32 ppm",100%
same,inhibition at 64 ppm,"[4]; Campylobacter coli, 64 ppm",100%
same,inhibition at 0.125 ppm,[5]; 0.125 ppm,0%
same,inhibition at 0.25 ppm,[5]; 0.25 ppm,0%
same,inhibition at 0.5 ppm,[5]; 0.5 ppm,0%
same,inhibition at 1 ppm,"[5]; 1 ppm, read-out: % Inhibition",0%
same,inhibition at 2 ppm,[5]; 2 ppm,0%
same,inhibition at 4 ppm,"[5]; 4 ppm, read-out: % Inhibition",0%
same,inhibition at 8 ppm,[5]; 8 ppm,0%
same,inhibition at 16 ppm,"[5]; 16 ppm, read-out: % Inhibition",0%
same,inhibition at 32 ppm,[5]; 32 ppm,0%
same,inhibition at 64 ppm,"[5]; 64 ppm, read-out: % Inhibition",0%
same,inhibition at 0.125 ppm,[6]; 0.125 ppm,0%
same,inhibition at 0.25 ppm,[6]; 0.25 ppm,0%
same,inhibition at 0.5 ppm,[6]; 0.5 ppm,0%
same,inhibition at 1 ppm,[6]; 1 ppm,0%
same,inhibition at 2 ppm,[6]; 2 ppm,0%
same,inhibition at 4 ppm,[6]; 4 ppm,0%
same,inhibition at 8 ppm,[6]; 8 ppm,0%
same,inhibition at 16 ppm,[6]; 16 ppm,0%
same,inhibition at 32 ppm,[6]; 32 ppm,0%
same,inhibition at 64 ppm,[6]; 64 ppm,0%
same,effectiveness compared with chlortetracycline (in words),[7]; [12],considerably more effective
same,inhibition at 0.125 ppm,"[7]; Enterococcus faecalis, 0.125 ppm",0%
same,inhibition at 0.25 ppm,"[7]; Enterococcus faecalis, 0.25 ppm",50%
same,inhibition at 0.5 ppm,"[7]; Enterococcus faecalis, 0.5 ppm",100%
same,inhibition at 1 ppm,"[7]; Enterococcus faecalis, 1 ppm, read-out: % Inhibition",100%
same,inhibition at 2 ppm,"[7]; Enterococcus faecalis, 2 ppm",100%
same,inhibition at 4 ppm,"[7]; Enterococcus faecalis, 4 ppm, read-out: % Inhibition",100%
same,inhibition at 8 ppm,"[7]; Enterococcus faecalis, 8 ppm",100%
same,inhibition at 16 ppm,"[7]; Enterococcus faecalis, 16 ppm, read-out: % Inhibition",100%
same,inhibition at 32 ppm,"[7]; Enterococcus faecalis, 32 ppm",100%
same,inhibition at 64 ppm,"[7]; Enterococcus faecalis, 64 ppm, read-out: % Inhibition",100%
same,effectiveness compared with chlortetracycline (in words),[8]; [12],considerably more effective
same,inhibition at 0.125 ppm,"[8]; Bordetella bronchiseptica, 0.125 ppm",0%
same,inhibition at 0.25 ppm,"[8]; Bordetella bronchiseptica, 0.25 ppm",0%
same,inhibition at 0.5 ppm,"[8]; Bordetella bronchiseptica, 0.5 ppm",0%
same,inhibition at 1 ppm,"[8]; Bordetella bronchiseptica, 1 ppm, read-out: % Inhibition",0%
same,inhibition at 2 ppm,"[8]; Bordetella bronchiseptica, 2 ppm",0%
same,inhibition at 4 ppm,"[8]; Bordetella bronchiseptica, 4 ppm, read-out: % Inhibition",0%
same,inhibition at 8 ppm,"[8]; Bordetella bronchiseptica, 8 ppm",0%
same,inhibition at 16 ppm,"[8]; Bordetella bronchiseptica, 16 ppm, read-out: % Inhibition",100%
same,inhibition at 32 ppm,"[8]; Bordetella bronchiseptica, 32 ppm",100%
same,inhibition at 64 ppm,"[8]; Bordetella bronchiseptica, 64 ppm, read-out: % Inhibition",100%
same,effectiveness compared with chlortetracycline (in words),[9]; [12],considerably more effective
same,inhibition at 0.125 ppm,"[9]; Erysipelothrix rhusiopathiae, 0.125 ppm",100%
same,inhibition at 0.25 ppm,"[9]; Erysipelothrix rhusiopathiae, 0.25 ppm",100%
same,inhibition at 0.5 ppm,"[9]; Erysipelothrix rhusiopathiae, 0.5 ppm",100%
same,inhibition at 1 ppm,"[9]; Erysipelothrix rhusiopathiae, 1 ppm",100%
same,inhibition at 2 ppm,"[9]; Erysipelothrix rhusiopathiae, 2 ppm",100%
same,inhibition at 4 ppm,"[9]; Erysipelothrix rhusiopathiae, 4 ppm",100%
same,inhibition at 8 ppm,"[9]; Erysipelothrix rhusiopathiae, 8 ppm",100%
same,inhibition at 16 ppm,"[9]; Erysipelothrix rhusiopathiae, 16 ppm",100%
same,inhibition at 32 ppm,"[9]; Erysipelothrix rhusiopathiae, 32 ppm",100%
same,inhibition at 64 ppm,"[9]; Erysipelothrix rhusiopathiae, 64 ppm",100%
same,inhibition at 0.125 ppm,[10]; 0.125 ppm,0%
same,inhibition at 0.25 ppm,[10]; 0.25 ppm,0%
same,inhibition at 0.5 ppm,[10]; 0.5 ppm,0%
same,inhibition at 1 ppm,"[10]; 1 ppm, read-out: % Inhibition",0%
same,inhibition at 2 ppm,[10]; 2 ppm,0%
same,inhibition at 4 ppm,"[10]; 4 ppm, read-out: % Inhibition",0%
same,inhibition at 8 ppm,[10]; 8 ppm,0%
same,inhibition at 16 ppm,"[10]; 16 ppm, read-out: % Inhibition",0%
same,inhibition at 32 ppm,[10]; 32 ppm,0%
same,inhibition at 64 ppm,"[10]; 64 ppm, read-out: % Inhibition",0%
same,inhibition at 0.125 ppm,[11]; 0.125 ppm,100%
same,inhibition at 0.25 ppm,[11]; 0.25 ppm,100%
same,inhibition at 0.5 ppm,[11]; 0.5 ppm,100%
same,inhibition at 1 ppm,"[11]; 1 ppm, read-out: % Inhibition",100%
same,inhibition at 2 ppm,[11]; 2 ppm,100%
same,inhibition at 4 ppm,"[11]; 4 ppm, read-out: % Inhibition",100%
same,inhibition at 8 ppm,[11]; 8 ppm,100%
same,inhibition at 16 ppm,"[11]; 16 ppm, read-out: % Inhibition",100%
same,inhibition at 32 ppm,[11]; 32 ppm,100%
same,inhibition at 64 ppm,"[11]; 64 ppm, read-out: % Inhibition",100%
same,effectiveness compared with chlortetracycline (in words),[11]; [12],considerably more effective
